In one test the target is RhaS (Escherichia coli, UniProt P09377). The experiment in a line: In vivo dose-response, RhaS-activated rhaB-lacZ reporter fusion (β-galactosidase). To be noted: full-length RhaS. It counts as cell-based, E. coli. The source says:
For dose-response studies, a rhaB-lacZ reporter strain was designed that allowed IPTG induction of RhaS or RhaS(163-278) expression from pHG165 (and thus rhaB-lacZ expression). The strain was constructed by introducing malP::lacIq into SME3000 via phage P1vir-mediated generalized transduction. First, SME3000 was transduced with Δcrp-3 zhc-511::Tn10 from SME1403, selecting for tetracycline resistance and screening for sorbitol deficiency (indicating Δcrp) using MacConkey sorbitol. SME3000 Acrp-3 zhc-511::Tn10 was transduced with crp^+ malP::lacI^q from SG22166, selecting for growth on minimal sorbitol and screening for maltose deficiency (indicating malP::lacI^q) using MacConkey maltose. Finally, SME3000 malP::lacI^q zhc-511::Tn10 was transduced with recA::cat from SME1048 by selecting for chloramphenicol resistance, to make strain SME3632.
The top hit identified in the screen was 1-ethyl-4-(nitromethyl)-3-quinolin-2-yl-4H-quinoline, Compound 2. The closely related compound, Compound 1,1-butyl-4-(nitromethyl)-3-quinolin-2-yl-4H-quinoline, was obtained from eMolecules, Inc. (Solana Beach, Calif.; catalog #3761-0013) or Princeton BioMolecular Research (Princeton, N.J.; catalog #OSSL—051168), with the Princeton named used here. […] Lysis/ONPG buffer (50 μL, as in Primary Screen) was added to each well and the plate was immediately placed into a PowerWave XS plate reader (BioTek Instruments, Inc., Winooski, Vt.), set to read the OD420 of each well every 15 min for 4 hr. […] Due to differences in kinetics of lacZ reporter expression, the rhaB-lacZ strains were analyzed at 4 hours and the hts-lacZ strain was analyzed at 1 hr. Percent activity was calculated for each condition as described above, using the single time point with appropriate OD420 levels for each strain. […] IC50 and maximal inhibition values were calculated using the XLfit add-in for Microsoft Excel (ID Business Solutions, Guildford, UK), and graphs were drawn using Prism (GraphPad, La Jolla, Calif.).

Another test has as its target T1, MBP-VirF (Shigella flexneri, UniProt P0A2T1).
T1 construct: made in house; host or cells: E. coli KS 1000, plasmid pMALvirF
The experiment in a line: EMSA in vitro DNA binding by VirF (MBP-VirF). It counts as biochemical. To be noted: purified MBP-VirF. The method, then: The IPTG inducible MBP-VirF expression plasmid, pMALvirF, was constructed by cloning virF downstream and in-frame with malE (encoding maltose binding protein, MBP) in the vector pMAL-c2X (New England Biolabs, Beverly, Mass.). MBP-VirF protein (referred to as VirF for simplicity) was purified using amylose affinity chromatography at 4° C. Briefly, pMALvirF was transformed into E. coli strain KS 1000 (New England Biolabs). The cells were grown to an OD600 of 0.5, transferred to 15° C., 0.1 mM IPTG was added, and then incubated overnight with shaking Cells were harvested and resuspended in 10 ml of binding buffer (20 mM Tris, 500 mM NaCl, 1 mM EDTA 1 mM DTT, pH 7.4). Cells were lysed by three freeze thaw cycles with lysozyme (0.4 mg/ml), tris (2-carboxyethyl)phosphine (TCEP, 1 mM) and phenylmethylsulfonyl fluoride (PMSF, 1 mM), at −80° C., followed by sonication and then centrifuged to remove cell debris. […]
Binding of purified VirF to a DNA fragment containing the VirF binding site at virB was analyzed by electrophoretic mobility shift assay (EMSA) (68), in the absence or presence of SE-1. […] Gels were scanned using an Odyssey infrared imager (LI-COR, Lincoln, Nebr.), and quantified using Odyssey software, version 3.0.30. […]
On the technique in general: Mobility shift assays separate free from complexed probe on a gel.

T1 sequence (P0A2T1 whole entry): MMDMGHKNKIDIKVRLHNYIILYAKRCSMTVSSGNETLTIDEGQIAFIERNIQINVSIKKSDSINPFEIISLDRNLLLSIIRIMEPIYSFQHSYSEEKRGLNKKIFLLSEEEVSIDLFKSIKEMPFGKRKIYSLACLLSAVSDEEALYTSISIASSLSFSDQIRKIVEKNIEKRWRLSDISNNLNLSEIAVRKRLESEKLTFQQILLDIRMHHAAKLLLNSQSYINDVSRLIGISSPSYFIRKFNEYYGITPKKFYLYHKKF
RhaS, sequence (P09377 whole entry, the tested form may be a part): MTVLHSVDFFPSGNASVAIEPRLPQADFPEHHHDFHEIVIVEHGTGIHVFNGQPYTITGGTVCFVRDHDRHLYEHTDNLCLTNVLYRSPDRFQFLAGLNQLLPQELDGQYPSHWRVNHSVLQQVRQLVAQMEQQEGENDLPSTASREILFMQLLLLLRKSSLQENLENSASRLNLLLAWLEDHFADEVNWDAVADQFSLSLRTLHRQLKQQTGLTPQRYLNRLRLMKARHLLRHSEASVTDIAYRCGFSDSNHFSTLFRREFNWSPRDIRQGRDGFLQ

The term IC50 denotes the concentration at which inhibition is half-maximal. For `CCCCN1C=C(c2ccc3ccccc3n2)C(C[N+](=O)[O-])c2ccccc21` (stereo not shown) [Compound 1, 1-butyl-4-(nitromethyl)-3-quinolin-2-yl-4H-quinoline], on RhaS (rhaB-lacZ), the “inhibition of the RhaS-activated fusion” value is “fully inhibit expression”. Moreover, the IC50 at RhaS (rhaB-lacZ (SME3634), read-out: IC50, expression of the RhaS-activated fusion) is approximately 30 µM. Further, the “inhibition of DNA binding by VirF” value on MBP-VirF is recorded as “similarly inhibits”; at MBP-VirF (listed as SE-1), “fully inhibit DNA binding”.

Values taken from US20140088144A1, “INHIBITING MICROBIAL INFECTIONS” (THE UNIVERSITY OF KANSAS, priority 2012, published 2014).
